Assay results taken from ChEMBL document CHEMBL6109139, “Rational Design of the First Dual Agonist at Trace Amine-Associated Receptor 1 and 5-HT2C Receptors Based on Binding Pocket Similarity for the Treatment of Schizophrenia and Alzheimer's Disease-Related Psychosis” (J Med Chem, 2025).
Activity calls are given as the source filed them. No cut-off for these calls is given here.

What was measured:
[1] = target: 5-hydroxytryptamine receptor 2C (Rattus norvegicus) (UniProt P08909); assay: Agonist activity at rat 5-HT2CR by measuring maximum efficacy relative to control; format: functional; conditions: filed as agonist
Chain of 5-hydroxytryptamine receptor 2C (Rattus norvegicus) (P08909 whole entry): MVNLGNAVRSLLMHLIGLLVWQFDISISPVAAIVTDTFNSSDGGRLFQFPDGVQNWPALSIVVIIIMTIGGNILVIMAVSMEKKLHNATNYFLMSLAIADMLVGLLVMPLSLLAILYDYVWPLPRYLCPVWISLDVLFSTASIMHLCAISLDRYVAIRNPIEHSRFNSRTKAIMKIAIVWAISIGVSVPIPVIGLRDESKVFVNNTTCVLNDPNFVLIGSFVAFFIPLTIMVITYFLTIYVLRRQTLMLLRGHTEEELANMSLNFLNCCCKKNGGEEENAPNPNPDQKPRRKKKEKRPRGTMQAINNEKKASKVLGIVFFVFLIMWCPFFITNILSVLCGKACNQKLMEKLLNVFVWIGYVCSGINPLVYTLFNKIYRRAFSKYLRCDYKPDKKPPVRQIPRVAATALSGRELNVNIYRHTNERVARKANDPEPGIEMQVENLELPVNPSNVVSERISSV

[2] = target: T1, Trace amine-associated receptor 1 (Homo sapiens, UniProt Q96RJ0); assay: Agonist activity at human TAAR1 extracted from CHO-K1 cell membrane coexpressing AGTRL1/Gi by cAMP assay; format: functional, cell membranes
T1 sequence (Q96RJ0 whole entry): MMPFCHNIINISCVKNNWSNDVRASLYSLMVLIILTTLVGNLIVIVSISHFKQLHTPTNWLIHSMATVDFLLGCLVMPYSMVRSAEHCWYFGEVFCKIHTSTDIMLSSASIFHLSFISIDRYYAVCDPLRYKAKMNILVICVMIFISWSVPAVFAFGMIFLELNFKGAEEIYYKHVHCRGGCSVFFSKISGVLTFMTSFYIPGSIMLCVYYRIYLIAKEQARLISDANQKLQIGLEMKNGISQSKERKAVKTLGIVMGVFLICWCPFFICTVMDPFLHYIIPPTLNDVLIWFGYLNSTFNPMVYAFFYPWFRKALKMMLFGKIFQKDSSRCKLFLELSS

[3] = target: T2, Trace amine-associated receptor 1 (Homo sapiens) (UniProt Q96RJ0); assay: Agonist activity at human TAAR1 extracted from CHO-K1 cell membrane coexpressing AGTRL1/Gi by measuring maximum efficacy at 0 to 100 uM by cAMP assay relative to control; format: functional, cell membranes; conditions: dose 0-100 µM
T2 sequence (whole entry): T1 sequence (Q96RJ0 whole entry)

Mus musculus [4] = species on record: Mus musculus; assay: Antipsychotic activity against MK-801 induced hyperlocomotion in male C57BL/6J mouse model assessed as effective dose; format: functional
[5] = target: T3, 5-hydroxytryptamine receptor 2C (Homo sapiens, UniProt P28335); assay: Agonist activity at recombinant human 5-HT2CR expressed in HEK293 cells incubated for 2 hrs by FLIPR calcium assay; format: functional, cell-based
T3 sequence (P28335 whole entry): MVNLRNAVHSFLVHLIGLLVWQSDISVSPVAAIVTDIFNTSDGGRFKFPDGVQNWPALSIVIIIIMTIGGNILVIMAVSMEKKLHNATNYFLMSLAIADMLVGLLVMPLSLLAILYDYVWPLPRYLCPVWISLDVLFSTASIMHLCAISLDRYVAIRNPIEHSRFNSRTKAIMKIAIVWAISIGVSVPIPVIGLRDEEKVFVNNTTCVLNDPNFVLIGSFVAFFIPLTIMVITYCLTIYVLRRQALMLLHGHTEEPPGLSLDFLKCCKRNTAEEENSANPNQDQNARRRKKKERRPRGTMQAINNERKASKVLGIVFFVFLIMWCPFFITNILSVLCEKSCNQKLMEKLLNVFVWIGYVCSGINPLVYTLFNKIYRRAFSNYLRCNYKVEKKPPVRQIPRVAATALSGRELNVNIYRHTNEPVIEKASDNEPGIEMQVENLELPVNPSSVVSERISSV

[6] = target: T4, 5-hydroxytryptamine receptor 2C (Homo sapiens) (UniProt P28335); assay: Agonist activity at recombinant human 5-HT2CR expressed in HEK293 cells incubated for 2 hrs by measuring maximum efficacy by FLIPR calcium assay relative to control; format: functional, cell-based
T4 sequence (whole entry): T3 sequence (P28335 whole entry)

[7] = target: T4, 5-hydroxytryptamine receptor 2C (Homo sapiens); assay: Partial agonist activity at recombinant human 5-HT2CR expressed in HEK293 cells incubated for 2 hrs by measuring maximum efficacy by FLIPR calcium assay relative to control; format: functional, cell-based; conditions: filed as partial agonist
Mus musculus [8] = assay: Antipsychotic activity against MK-801 induced hypermobilization in male C57BL/6J mouse model assessed as reduction in hypermobilization state at 3 mg/kg, IG pretreated with compound followed by MK-801 addition and measured after 30 mins by open field test; format: functional, organism-based
Mus musculus [9] = assay: Antipsychotic activity in amyloid beta(1 to 42) induced cognitive impairment in mouse model assessed as reduction in exploration time at 1 mg/kg, IG measured after 24 hrs by novel object recognition test; format: functional, organism-based
Mus musculus [10] = assay: Antipsychotic activity in amyloid beta(1 to 42) induced cognitive impairment in mouse model assessed as increase in discrimination ratio of novel objects at 1 mg/kg, IG measured after 24 hrs by novel object recognition test; format: functional, organism-based
Mus musculus [11] = assay: Antipsychotic activity in amyloid beta (1 to 42) induced hyperlocomotion in mouse model assessed as decrease in total distance traveled at 10 mg/kg by open field test; format: functional, organism-based
Mus musculus [12] = assay: Antipsychotic activity against DOI-induced head-twitch response in mouse assessed as reduction in head-twitch response at 10 mg/kg, IG measured for 30 mins; format: functional, organism-based
[13] = target: Trace amine-associated receptor 1 (Rattus norvegicus, UniProt Q923Y9); assay: Agonist activity at rat TAAR1; format: functional
Chain of Trace amine-associated receptor 1 (Rattus norvegicus, UniProt Q923Y9) (Q923Y9 whole entry): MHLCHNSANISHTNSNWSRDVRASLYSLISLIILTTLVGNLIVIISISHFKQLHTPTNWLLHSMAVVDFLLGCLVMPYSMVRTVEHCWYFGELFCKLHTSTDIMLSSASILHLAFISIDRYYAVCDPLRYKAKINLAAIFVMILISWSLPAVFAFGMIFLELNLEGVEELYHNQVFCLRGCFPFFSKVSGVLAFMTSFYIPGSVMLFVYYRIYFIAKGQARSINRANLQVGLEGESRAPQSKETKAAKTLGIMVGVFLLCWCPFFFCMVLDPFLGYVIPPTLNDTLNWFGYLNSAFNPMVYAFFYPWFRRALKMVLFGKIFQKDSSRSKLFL

[14] = target: Trace amine-associated receptor 1 (Mus musculus, UniProt Q923Y8); assay: Agonist activity at mouse TAAR1; format: functional
Chain of Trace amine-associated receptor 1 (Mus musculus, UniProt Q923Y8) (Q923Y8 whole entry): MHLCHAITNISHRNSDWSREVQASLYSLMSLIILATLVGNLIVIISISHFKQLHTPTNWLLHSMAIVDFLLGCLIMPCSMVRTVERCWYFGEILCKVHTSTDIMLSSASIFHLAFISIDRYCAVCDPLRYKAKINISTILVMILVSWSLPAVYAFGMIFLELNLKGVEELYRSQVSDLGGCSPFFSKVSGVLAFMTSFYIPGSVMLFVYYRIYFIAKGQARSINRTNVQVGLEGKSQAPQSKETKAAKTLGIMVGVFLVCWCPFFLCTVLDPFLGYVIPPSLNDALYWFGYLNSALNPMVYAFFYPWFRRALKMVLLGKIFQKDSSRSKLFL

[15] = target: Trace amine-associated receptor 1 (Rattus norvegicus) (UniProt Q923Y9); assay: Agonist activity at rat TAAR1 by measuring maximum efficacy relative to control; format: functional; conditions: filed as agonist
Chain of Trace amine-associated receptor 1 (Rattus norvegicus) (Q923Y9 whole entry): as the sequence (Q923Y9 whole entry) above

[16] = target: Trace amine-associated receptor 1 (Mus musculus) (UniProt Q923Y8); assay: Agonist activity at mouse TAAR1 by measuring maximum efficacy relative to control; format: functional; conditions: filed as agonist
Chain of Trace amine-associated receptor 1 (Mus musculus) (Q923Y8 whole entry): as the sequence (Q923Y8 whole entry) above

SMILES | EC50 [2] | Emax ([3]; filed as agonist) | also measured
NCCc1c[nH]c2ccc(O)cc12 | – | – | Emax [1]: 102%
c1cc2c(o1)C1CNCCN1CC2 (stereo in doubt; 22b) [listing 1 of 2 here] | 0.776 µM | – | –
c1ccc2c(c1)CCN1CCNCC21 (racemic) [AZAQUINZOLE] | 41.7 µM | – | Emax [3]: 37.2%
c1csc(C2CNCO2)c1 (racemic) | 6.4 µM | 97% | –
CCCCCN1CCc2ccsc2C1CN (stereo in doubt; 20b) | – | – | Emax [3]: 15.6%
OCC1OCCc2ccsc21 (stereo in doubt; 15b) | – | – | Emax [3]: 2.72%
CCc1[nH]nc(C(=O)Nc2ccc([C@H]3CNCCO3)cc2)c1C [RALMITARONT] | – | 66% | ED50 (Mus musculus [4]): < 400 mg/kg; EC50 [5]: > 100 µM; Emax [6]: 0.13%
OCC1OCCc2ccsc21 (stereo in doubt; 15a) [listing 1 of 2 here] | > 100 µM | – | –
COc1csc(C2CNCCO2)c1 (stereo in doubt; 26a) [listing 1 of 2 here] | 23.6 µM | – | –
CNCC1SCCc2ccsc21 (stereo in doubt; 16b) [listing 1 of 2 here] | – | 74.6% | –
Fc1ccc(C2CNCCO2)s1 (racemic) | – | 80.8% | –
c1ccc2sc(C3CNCCO3)cc2c1 (racemic) | 4.35 µM | 72.1% | –
CNCC1OCC(C)(C)c2ccsc21 (racemic) | 24.1 µM | 53.3% | –
CN1CCc2ccsc2C1CN (stereo in doubt; 18a) [listing 1 of 2 here] | > 100 µM | – | –
COc1ccsc1C1CNCCO1 (stereo in doubt; 25b) | – | 76.4% | –
CCCCCN1CCc2ccsc2C1CN (stereo in doubt; 20a) [listing 1 of 2 here] | > 30 µM | – | –
CCCN1CCc2ccsc2C1CN (stereo in doubt; 19a) [listing 1 of 2 here] | 7.97 µM | – | –
COc1ccc(C2CNCCO2)s1 (stereo in doubt; 27a) [listing 1 of 2 here] | 37.5 µM | – | –
COc1csc(C2CNCCO2)c1 (stereo in doubt; 26b) [listing 1 of 2 here] | 2.16 µM | – | –
COc1ccccc1C1CNCCO1 (racemic) | 1.39 µM | 79% | –
COc1ccsc1C1CNCCO1 (stereo in doubt; 25a) | – | 94.1% | Emax [7]: 68.3%; Activity (Mus musculus [8]): Active; Similar Effect Compared To Ulotaront
COc1csc(C2CNCCO2)c1 (stereo in doubt; 26a) [listing 2 of 2 here] | – | 63.8% | –

SMILES | EC50 [2] | Emax ([3]; filed as agonist) | also measured
CN1CCc2ccsc2C1CN (stereo in doubt; 18b) | – | 96.5% | –
c1cc2c(s1)CCN1CCNCC21 (stereo in doubt; 23a) [listing 1 of 2 here] | 14.2 µM | – | –
Fc1csc(C2CNCCO2)c1 (racemic) | – | 107% | –
CNCC1SCCc2ccsc21 (stereo in doubt; 16a) [listing 1 of 2 here] | – | – | Emax [3]: 37.4%
CCCCCN1CCc2ccsc2C1CN (stereo in doubt; 20a) [listing 2 of 2 here] | – | – | Emax [3]: 0%
CN1CCc2ccsc2C1CN (stereo in doubt; 18a) [listing 2 of 2 here] | – | – | Emax [3]: 18.9%
CNCC1NCCc2ccsc21 (stereo in doubt; 17b) [listing 1 of 2 here] | – | 61.2% | –
CC1(c2cccs2)CNCCO1 (racemic) | 20.7 µM | 92.6% | –
CNCC1OC(C)(C)Cc2ccsc21 (racemic) | – | 99.6% | –
CNCC1NCCc2ccsc21 (stereo in doubt; 17a) [listing 1 of 2 here] | – | – | Emax [3]: 33.8%
CNCC1NCCc2ccsc21 (stereo in doubt; 17a) [listing 2 of 2 here] | 42.1 µM | – | –
COc1csc(C2CNCCO2)c1 (stereo in doubt; 26b) [listing 2 of 2 here] | – | 85.6% | –
c1csc([C@@H]2CNCCO2)c1 | – | 80.1% | EC50 [5]: 3.49 µM; Emax ([6]; filed as agonist): 101%
c1cc2c(s1)CCN1CCNCC21 (stereo in doubt; 23a) [listing 2 of 2 here] | – | 51% | –
CC(=O)c1ccsc1C1CNCCO1 (stereo in doubt; 36b) [listing 1 of 2 here] | 15.2 µM | – | –
COc1ccc(C2CNCCO2)s1 (stereo in doubt; 27b) [listing 1 of 2 here] | 1.59 µM | – | –
OCC1OCCc2ccsc21 (stereo in doubt; 15a) [listing 2 of 2 here] | – | – | Emax [3]: 1.94%
CCCN1CCc2ccsc2C1CN (stereo in doubt; 19b) [listing 1 of 2 here] | – | – | Emax [3]: 34.3%
c1cc2c(o1)C1CNCCN1CC2 (stereo in doubt; 22b) [listing 2 of 2 here] | – | 94.3% | –
c1cc2c(s1)CCN1CCNCC21 (stereo in doubt; 23b) [listing 1 of 2 here] | 1.03 µM | – | –
c1cc2c(o1)C1CNCCN1CC2 (stereo in doubt; 22a) [listing 1 of 2 here] | 0.036 µM | – | –
CNCC1SCCc2ccsc21 (stereo in doubt; 16b) [listing 2 of 2 here] | 0.522 µM | – | –

SMILES | EC50 [2] | Emax ([3]; filed as agonist) | also measured
CC(=O)c1ccsc1C1CNCCO1 (stereo in doubt; 36a) [listing 1 of 2 here] | – | – | Emax [3]: 2.04%
COc1ccc(C2CNCCO2)s1 (stereo in doubt; 27a) [listing 2 of 2 here] | – | 69% | –
CC(C)Oc1ccsc1C1CNCCO1 (racemic) | > 100 µM | – | Emax [3]: 18.1%
CCCN1CCc2ccsc2C1CN (stereo in doubt; 19b) [listing 2 of 2 here] | 6.93 µM | – | –
CC(=O)c1ccsc1C1CNCCO1 (stereo in doubt; 36b) [listing 2 of 2 here] | – | 41.7% | –
FC(F)(F)COc1ccsc1C1CNCCO1 (racemic) | – | 97.7% | –
CNCC1OCCc2ccoc21 (racemic) | – | 105% | –
CC(=O)c1ccsc1C1CNCCO1 (stereo in doubt; 36a) [listing 2 of 2 here] | > 100 µM | – | –
O=c1ccc2ccc(OCCCCN3CCN(c4cccc5sccc45)CC3)cc2[nH]1 | – | – | Activity (Mus musculus [9]): Active; Activity (Mus musculus [10]): inactive; Activity (Mus musculus [11]): Active; Activity (Mus musculus [12]): Active
c1cc2c(o1)C1CNCCN1CC2 (stereo in doubt; 22a) [listing 2 of 2 here] | – | 95.6% | –
CCCN1CCc2ccsc2C1CN (stereo in doubt; 19a) [listing 2 of 2 here] | – | – | Emax [3]: 35.7%
CNCC1SCCc2ccsc21 (stereo in doubt; 16a) [listing 2 of 2 here] | 20.7 µM | – | –
c1cc(C2CC2)c(C2CNCCO2)s1 (racemic) | – | 98.6% | –
c1cc2c(s1)CCN1CCNCC21 (stereo in doubt; 23b) [listing 2 of 2 here] | – | 77% | –
FCCOc1ccsc1C1CNCCO1 (racemic) | – | 46.7% | –
Fc1ccsc1C1CNCCO1 (racemic) | 0.252 µM | 100% | –
CNCC1OC(COC)Cc2ccsc21 (racemic) | 38 µM | 64% | –
COc1ccc(C2CNCCO2)s1 (stereo in doubt; 27b) [listing 2 of 2 here] | – | 96.9% | –
FC(F)COc1ccsc1C1CNCCO1 (racemic) | 32.4 µM | 75.2% | –
CNCC1NCCc2ccsc21 (stereo in doubt; 17b) [listing 2 of 2 here] | 7.96 µM | – | –
NCCc1ccc(O)cc1 [TYRAMINE] | 0.93 µM | 103% | EC50 [13]: 0.228 µM; EC50 [14]: 0.85 µM; Emax [15]: 99%; Emax [16]: 103%
